Columns and labels:
[1] = target: T1, ALK1 (GST-modified kinase domain ACVRL1 (139-503)) (Homo sapiens, UniProt P37023); assay: ALK1 kinase inhibition assay (33P-ATP filter binding, Reaction Biology); assay type: biochemical; details: casein substrate, 100 μM ATP (Km ATP), 120 min ambient temperature
T1 construct: N-terminally GST-modified kinase domain ACVRL1 (139-503); GST (N)
T1 sequence (P37023 139-503): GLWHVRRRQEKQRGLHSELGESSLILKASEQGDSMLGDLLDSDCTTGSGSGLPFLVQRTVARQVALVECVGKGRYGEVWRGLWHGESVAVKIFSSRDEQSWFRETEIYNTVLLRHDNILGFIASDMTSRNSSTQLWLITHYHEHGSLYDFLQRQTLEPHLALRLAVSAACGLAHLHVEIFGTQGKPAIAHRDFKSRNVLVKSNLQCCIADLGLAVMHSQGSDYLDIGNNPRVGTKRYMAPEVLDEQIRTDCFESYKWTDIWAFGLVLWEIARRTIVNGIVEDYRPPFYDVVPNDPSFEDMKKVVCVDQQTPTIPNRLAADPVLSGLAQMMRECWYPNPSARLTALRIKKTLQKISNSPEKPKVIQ
Procedure: (§1) The protein sequences of the kinases targeted and accompanying information are described in publically available data base http://www.uniprot.org/uniprot/for ALK1 www.uniprot.org/uniprot/P37023, for ALK2 www.uniprot.org/uniprot/Q04771 and for ALK5 www.uniprot.org/uniprot/P36897. IC50 determination of the novel inhibitors described was performed at Reaction Biology Corp., Malvern, Pa., USA, with assay conditions open to public at www.reactionbiology.com/webapps/site/KinaseDetail.aspx?page=Kinases&id=1, and www.reactionbiology.com/webapps/site/Kinase Assay Protocol.aspx. In addition, they were specified previously in Anastassiadis et al. Nat. Biotechnol. 29(11): 1039-1045. doi:10.1038/nbt.2017.
A1) ALK1 Kinase Inhibition Assay
(§2) was performed with N-terminally GST-modified kinase domain ACVRL1 (139-503) and 20 mg/ml Casein as substrate in reaction buffer of 20 mM HEPES pH 7.5, 10 mM MgCl2, 1 mM EGTA, 0.02% Brij, 0.02 mg/ml BSA, 0.1 mM Na3VO4, 2 mM DTT, 1% DMSO. […] Reactions were carried out at ambient temperature for 120 min, followed by spotting of the reactions onto P81 ion exchange filter paper (Whatman Inc., Picataway, N.J., USA). Unbound phosphate was removed by extensive washing of filters in 0.75% phosphoric acid. After subtraction of background derived from control reactions without enzyme activity, kinase activity data was expressed as the percent remaining kinase activity in test samples compared to vehicle (DMSO) reactions. IC50 values and curve fits were obtained using Prism (GraphPad Software).

[2] = target: T2, ALK2 (GST-modified kinase domain ACVR1(145-509)) (Homo sapiens, UniProt Q04771); assay: ALK2 kinase inhibition assay (33P-ATP filter binding, Reaction Biology); assay type: biochemical; details: casein substrate, 20 μM ATP (Km ATP), 120 min ambient temperature
T2 construct: N-terminally GST-modified kinase domain ACVR1(145-509); GST (N)
T2 sequence (Q04771 145-509): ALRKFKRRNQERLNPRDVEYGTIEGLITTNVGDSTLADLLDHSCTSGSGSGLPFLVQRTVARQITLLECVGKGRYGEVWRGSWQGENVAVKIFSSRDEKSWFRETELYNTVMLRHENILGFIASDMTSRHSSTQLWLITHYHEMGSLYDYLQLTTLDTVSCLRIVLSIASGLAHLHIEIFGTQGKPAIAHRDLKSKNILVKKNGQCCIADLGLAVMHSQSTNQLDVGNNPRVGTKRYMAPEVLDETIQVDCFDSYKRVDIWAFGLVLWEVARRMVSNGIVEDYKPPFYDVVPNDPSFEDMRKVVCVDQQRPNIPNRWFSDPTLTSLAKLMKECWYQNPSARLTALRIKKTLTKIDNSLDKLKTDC
Procedure: as §1
A2) ALK2 Kinase Inhibition Assay
as §2, with “performed similar to procedure A1” for “performed”, “domain ACVR1(145-509)” for “domain ACVRL1 (139-503)”, “and 1” for “and 20”

[3] = target: T3, ALK5 (TGFβR1; GST-modified TGFBR1 (200-503)) (Homo sapiens, UniProt P36897); assay: ALK5 kinase inhibition assay (33P-ATP filter binding, Reaction Biology); assay type: biochemical; details: casein substrate, 200 μM ATP
T3 construct: Using GST-Modified TGFBR1 (200-503); GST
T3 sequence (P36897 200-503): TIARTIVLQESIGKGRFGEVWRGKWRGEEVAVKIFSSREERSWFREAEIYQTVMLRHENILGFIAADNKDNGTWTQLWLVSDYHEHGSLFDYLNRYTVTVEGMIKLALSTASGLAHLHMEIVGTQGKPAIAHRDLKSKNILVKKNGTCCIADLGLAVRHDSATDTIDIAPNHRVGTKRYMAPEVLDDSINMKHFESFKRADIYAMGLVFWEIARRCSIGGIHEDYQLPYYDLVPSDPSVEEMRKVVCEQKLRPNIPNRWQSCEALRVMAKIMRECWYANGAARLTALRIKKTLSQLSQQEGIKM
Procedure: as §1
A3) ALK5 Kinase Inhibition Assay Was Performed Similar to Procedures A1 and A2 Using GST-Modified TGFBR1 (200-503) and 1 mg/ml Casein as Substrate at 200 μM ATP.

[4] = test system: ALK1-mediated SMAD1/5 phosphorylation in HUVEC cells; assay: Cell-based immunofluorescence assay for ALK1-mediated SMAD1/5 phosphorylation in HUVEC cells; details: Homo sapiens, 1.5 ng/ml BMP-9 with compound for 2 h, % nuclei with pSMAD1/5 signal, read-out: Smad 1/5 IC50
Description: In vitro cell-based Immunofluorescence-Assay for identification of inhibitors of ALK1-mediated SMAD1/5 phosphorylation in HUVEC cells:
ALK1 is a type I cell-surface receptor for the TGF-β superfamily of ligands. In adults ALK1 is mainly expressed on activated endothelial cells, e.g. during wound healing or in tumor angiogenesis. BMP9 and BMP10 are high affinity ligands for ALK1.
BMP9 and BMP10 binding leads to the phosphorylation of so-called Smad1 at Ser463 and Ser465 in the carboxy-terminal motif SSXS, as well as Smad5 and Smad8 at their corresponding sites. These phosphorylated Smads dimerize with the coactivating Smad4 and translocate to the nucleus, where they stimulate transcription of target genes.
Primary endothelial cells (HUVEC: Human Umbilical Vein Endothelial Cells; supplier Promocell) are cultivated in the culture medium obtained from Promocell (with supplements corresponding to 5% FCS) for maximum 5 passages, seeded into black 384-well culture plates with clear bottom (3000 cells/well/30 μl), and incubated for 16-24 hours at 37° C., 5% CO2 and 90% rH.
The following day cells were serum-starved for 2-3 h in order to stop TGF-ß-mediated signalling derived from ligands present in FBS. 1.5 ng/ml BMP-9 was than added in parallel with test compounds for 2 h at 37° C., 5% CO2 in order to identify compounds which block functional activity of ALK1 leading to phosphorylation and nuclear translocation of SMAD1/5/8.
After fixation (15 min 4% Formaldehyd in PBS) and permeabilization (10 min 0.2% Triton X-100 in PBS) an indirect immunocytochemical staining is performed with a specific Phospho-Smad1/5 (Ser463/465) antibody (Cell Signaling #9516) and Alexa488-labelled secondary anti-rabbit-IgG-antibody. DNA staining with Propidium Iodide allowed parallel cell counting. Image acquisition and analysis was performed on an MDS ImageXpress Ultra confocal High Content Reader using the image analysis software MetaXpress. Final read-out were % nuclei with a pSMAD1/5 signal above a defined background.
The final DMSO concentration in the assay was 0.5%. DMSO-treated HUVEC cells served as neutral control (=0%) and cells treated with 10 μM of a reference inhibitor described in a patent served as inhibitor control (=−100%). Raw data were normalised to the neutral and inhibitory references. The assay was performed as dose response (10 compound dilutions, 1 nM-30 μM).

Structure (SMILES)	IC50 [1] [nM]	IC50 [2] [nM]	IC50 [3] [nM]	IC50 [4] [nM]
CN1CCCN(c2ccc3[nH]c(-c4cc(-c5ccnc6[nH]ccc56)c[nH]c4=O)nc3c2)CC1 [Compound A49, 3-[5-(4-Methyl-[1,4]diazepan-1-yl)-1H-benzimidazol-2-yl]-5-(1H-pyrrolo-[2,3-b]pyridin-4-yl)-1H-pyridin-2-one]	1.4	26	280	3700
O=c1[nH]cc(-c2ccnc3[nH]ccc23)cc1-c1nc2cc(N3CCCCC3)ccc2[nH]1 [Compound A43, 3-(5-Piperidin-1-yl-1H-benzimidazol-2-yl)-5-(1H-pyrrolo[2,3-b]pyridin-4-yl)-1H-pyridin-2-one]	45	37	870	1800
CN1CCN(c2ccc3[nH]c(-c4cc(-c5ccnc6ccccc56)c[nH]c4=O)nc3c2)CC1 [Compound A29, 3-[5-(4-Methyl-piperazin-1-yl)-1H-benzimidazol-2-yl]-5-quinolin-4-yl-1H-pyridin-2-one]	92	63	1700	3700
CN1CCN(c2ccc3[nH]c(-c4cc(-c5ccnc6[nH]ccc56)c[nH]c4=O)nc3c2)CC1 [Compound A50, 3-[6-(4-Methyl-piperazin-1-yl)-1H-benzimidazol-2-yl]-5-(1H-pyrrolo-[2,3-b]pyridin-4-yl)-1H-pyridin-2-one]	2	5	170	400
O=c1[nH]cc(-c2ccnc3[nH]ccc23)cc1-c1nc2cc(N3CCOCC3)ccc2[nH]1 [Compound A41, 3-(5-Morpholin-4-yl-1H-benzimidazol-2-yl)-5-(1H-pyrrolo[2,3-b]pyridin-4-yl)-1H-pyridin-2-one]	10	7	430	190

Further lines, with some results ahead:

IC50 [1] [nM]	IC50 [2] [nM]	IC50 [3] [nM]	Structure (SMILES)	IC50 [4] [nM]
6	8	2400	O=c1[nH]cc(-c2ccc(CO)cc2)cc1-c1nc2cc(N3CCNCC3)ccc2[nH]1 [Compound A16, 5-(4-Hydroxymethyl-phenyl)-3-(5-piperazin-1-yl-1H-benzimidazol-2-yl)-1H-pyridin-2-one]	590
2	22	1600	O=c1[nH]cc(-c2cccc(CO)c2F)cc1-c1nc2cc(N3CCNCC3)ccc2[nH]1 [Compound A23, 5-(2-Fluoro-3-hydroxymethyl-phenyl)-3-(5-piperazin-1-yl-1H-benzimidazol-2-yl)-1H-pyridin-2-one]	130
13	12	1700	CN1CCN(c2ccc3[nH]c(-c4cc(-c5cccc(CO)c5)c[nH]c4=O)nc3c2)CC1 [Compound A27, 5-(3-Hydroxymethyl-phenyl)-3-[5-(4-methyl-piperazin-1-yl)-1H-benzimidazol-2-yl]-1H-pyridin-2-one]	450
14	11	1900	CN1CCCN(c2ccc3[nH]c(-c4cc(-c5cccc(CO)c5)c[nH]c4=O)nc3c2)CC1 [Compound A33, 5-(3-Hydroxymethyl-phenyl)-3-[5-(4-methyl-[1,4]diazepan-1-yl)-1H-benzimidazol-2-yl]-1H-pyridin-2-one]	900
49	44	130	Cc1cc2c(-c3c[nH]c(=O)c(-c4nc5cc(N6CCNCC6)ccc5[nH]4)c3)ccnc2[nH]1 [Compound A48a, 5-(2-Methyl-1H-pyrrolo[2,3-b]pyridin-4-yl)-3-(5-piperazin-1-yl-1H-benzimidazol-2-yl)-1H-pyridin-2-one]	2700
24	19	4400	O=c1[nH]cc(-c2ccc(F)c(CO)c2)cc1-c1nc2cc(N3CCNCC3)ccc2[nH]1 [Compound A20, 5-(4-Fluoro-3-hydroxymethyl-phenyl)-3-(5-piperazin-1-yl-1H-benzimidazol-2-yl)-1H-pyridin-2-one]	7800
120	100	10000	CN1CCN(c2ccc3[nH]c(-c4cc(-c5cnc6[nH]ccc6c5)c[nH]c4=O)nc3c2)CC1 [Compound A51, 3-[6-(4-Methyl-piperazin-1-yl)-1H-benzimidazol-2-yl]-5-(1H-pyrrolo[2,3-b]-pyridin-5-yl)-1H-pyridin-2-one]	5600

Source: US10179777B2, “3-(1H-benzimidazol-2-yl)-1H-pyridin-2-one derivatives” (MERCK PATENT GMBH, priority 2015, dated 2019)
